Laboratory results taken from patent US20240409536A1, “COMPOUNDS AND METHODS FOR MODULATING SPLICING” (REMIX THERAPEUTICS INC., priority 2021, published 2024).

How the values were obtained:
[1] = system: HiBiT-tagged HTT protein; test: HiBiT protein abundance assay, HTT (K562 HiBiT knock-in cells); assay type: cell-based, human; details: 24 hours
In short: (§1)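 K562 cells with endogenous HiBiT knock-in tag, 10-point 3-fold dilutions (top 10 μM final, ≤0.25% DMSO), 24 h at 37 °C. Lytic Nano-Glo HiBiT luminescence, normalized to DMSO and unmodified K562 baselines; IC50 is concentration giving 50% protein abundance from four-parameter fit.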

[2] = system: HiBiT-tagged MYB protein; test: HiBiT protein abundance assay, MYB (K562 HiBiT knock-in cells); assay type: cell-based, human; details: 24 hours
In short: as §1

| SMILES | IC50 [1] | IC50 [2] |
| --- | --- | --- |
| Cc1cn2cc(NC(=O)c3ccc(N4CCN[C@@H](C(C)C)C4)c4nccnc34)cc(F)c2n1 [Compound 250, N-{8-fluoro-2-methylimidazo[1,2-a]pyridin-6-yl}-8-[(3S)-3-isopropylpiperazin-1-yl]quinoxaline-5-carboxamide] | > 10000 nM | 100 to 1000 nM |
| CN[C@H]1CCN(c2ccc(C(=O)Nc3cc(F)c4nc(C)cn4c3)c3nnccc23)C1 [Compound 239, (S)—N-(8-fluoro-2-methylimidazo[1,2-a]pyridin-6-yl)-5-(3-(methylamino)pyrrolidin-1-yl)cinnoline-8-carboxamide] | 100 to 1000 nM | < 100 nM |
| Cn1cc2ccc(NC(=O)c3ccc(N4CCNCC4)c4ccnnc34)cc2n1 [Compound 115] | > 10000 nM | > 10000 nM |
| Cc1cn2cc(NC(=O)c3ccc(N4CCC(N)(CF)CC4)c4nccnc34)cc(F)c2n1 [Compound 356] | 1000 to 10000 nM | 1000 to 10000 nM |
| COc1nc2c(N3C[C@@H](C)N[C@@H](C)C3)ccc(C(=O)Nc3cc(F)c4nc(C)cn4c3)c2nc1C [Compound 260, 8-((3R,5S)-3,5-dimethylpiperazin-1-yl)-N-(8-fluoro-2-methylimidazo[1,2-a]pyridin-6-yl)-2-methoxy-3-methylquinoxaline-5-carboxamide; 2,2,2-trifluoroacetate] | 1000 to 10000 nM | < 100 nM |
| Cc1cn2cc(NC(=O)c3ccc(N4C[C@@H](C)N[C@@H](C)C4)c4cccnc34)cc(F)c2n1 [Compound 340] | 1000 to 10000 nM | 100 to 1000 nM |
| Cc1cn2cc(NC(=O)c3ccc(N4CCN[C@@H](C5CC5)C4)c4nccnc34)cc(F)c2n1 [Compound 252, 8-[(3S)-3-cyclopropylpiperazin-1-yl]-N-{8-fluoro-2-methylimidazo[1,2-a]pyridin-6-yl}quinoxaline-5-carboxamide] | 1000 to 10000 nM | 100 to 1000 nM |
| Cc1cn2cc(NC(=O)c3ccc(N4C[C@@H](C)N[C@@H](C)C4)c4nccnc34)nc(Cl)c2n1 [Compound 279] | 1000 to 10000 nM | < 100 nM |
| Cc1cn2cc(NC(=O)c3ccc(N4C[C@@H](C)N[C@@H](C)C4)c4nccnc34)nc2c(C)n1 [Compound 359] | > 10000 nM | 100 to 1000 nM |
| COc1ccc2c(N3C[C@@H](C)N[C@@H](C)C3)ccc(C(=O)Nc3cc(F)c4nc(C)cn4c3)c2n1 [Compound 268, 5-[(3R,5S)-3,5-dimethylpiperazin-1-yl]-N-{8-fluoro-2-methylimidazo[1,2-a]pyridin-6-yl}-2-methoxyquinoline-8-carboxamide] | 1000 to 10000 nM | < 100 nM |
| Cc1ccc2cc(NC(=O)c3ccc(N4C[C@@H](C)N[C@@H](C)C4)c4nccnc34)cc(F)c2n1 [Compound 353] | > 10000 nM | > 10000 nM |
| Cn1cc2c(F)cc(NC(=O)c3ccc(N4CCNCC4)c4ccnnc34)cc2n1 [Compound 116] | > 10000 nM | > 10000 nM |
| Cc1cn2cc(NC(=O)c3ccc(N4CCN(C)C5(CC5)C4)c4nccnc34)cc(F)c2n1 [Compound 364] | 100 to 1000 nM | 100 to 1000 nM |
| Cc1cn2cc(NC(=O)c3ccc(N4CCN[C@H](C5CC5)C4)c4nccnc34)cc(F)c2n1 [Compound 253, 8-[(3R)-3-cyclopropylpiperazin-1-yl]-N-{8-fluoro-2-methylimidazo[1,2-a]pyridin-6-yl}quinoxaline-5-carboxamide] | 1000 to 10000 nM | < 100 nM |
| Cc1cn2cc(NC(=O)c3ccc(N4CCN[C@H](CF)C4)c4nccnc34)cc(F)c2n1 [Compound 366] | 1000 to 10000 nM | 100 to 1000 nM |
| Cc1cn2cc(NC(=O)c3ccc(N4C[C@H](C)N[C@@H](C)C4)c4nccnc34)cc(F)c2n1 [Compound 313] | 100 to 1000 nM | < 100 nM |
| Cc1cn2cc(NC(=O)c3ccc(N4CCC(NC5CC5)CC4)c4ccnnc34)cc(F)c2n1 [Compound 259, 5-[4-(cyclopropylamino)piperidin-1-yl]-N-{8-fluoro-2-methylimidazo[1,2-a]pyridin-6-yl} cinnoline-8-carboxamide] | 100 to 1000 nM | < 100 nM |
| COc1nc(NC(=O)c2ccc(N3C[C@@H](C)N[C@@H](C)C3)c3nccnc23)cc2oc(C)nc12 [Compound 298] | 1000 to 10000 nM | 100 to 1000 nM |
| C[C@@H]1CN(c2ccc(C(=O)Nc3cc(F)c4cnccc4c3)c3nccnc23)C[C@H](C)N1 [Compound 343] | 1000 to 10000 nM | 1000 to 10000 nM |

| SMILES | IC50 [1] | IC50 [2] |
| --- | --- | --- |
| Cc1cn2cc(NC(=O)c3c(F)cc(N4C[C@@H](C)N[C@@H](C)C4)c4nccnc34)cc(F)c2n1 [Compound 261, cis-8-[(3R,5S)-3,5-dimethylpiperazin-1-yl]-6-fluoro-N-{8-fluoro-2-methylimidazo[1,2-a]pyridin-6-yl}quinoxaline-5-carboxamide] | 1000 to 10000 nM | < 100 nM |
| Cc1cn2cc(NC(=O)c3ccc([C@H]4CCNC4)c4nccnc34)cc(F)c2n1 [Compound 246] | 1000 to 10000 nM | 100 to 1000 nM |
| Cc1cn2cc(NC(=O)c3ccc(N4CCNC(C)(CO)C4)c4nccnc34)cc(F)c2n1 (stereo not shown) [Compound 368] | 1000 to 10000 nM | < 100 nM |
| Cc1cn2cc(NC(=O)c3ccc(NC4CCNC4)c4nccnc34)cc(F)c2n1 (stereo not shown) [Compound 316] | 1000 to 10000 nM | 100 to 1000 nM |
| COc1ncc2c(N3C[C@@H](C)N[C@@H](C)C3)ccc(C(=O)Nc3cc(F)c4nc(C)cn4c3)c2n1 [Compound 300] | 100 to 1000 nM | < 100 nM |
| Cc1cn2cc(NC(=O)c3ccc(N4CCN[C@H](CO)C4)c4nccnc34)cc(F)c2n1 [Compound 362] | 1000 to 10000 nM | 100 to 1000 nM |
| CNC1CCN(c2ccc(C(=O)Nc3cc(F)c4nc(C)cn4c3)c3nc(OCCOC)ccc23)C1 (stereo not shown) [Compound 234] | 1000 to 10000 nM | < 100 nM |
| Cc1c(O)c(NC(=O)c2ccc(N3C[C@@H](C)N[C@@H](C)C3)c3nccnc23)cc2cn(C)nc12 [Compound 310] | > 10000 nM | 1000 to 10000 nM |
| Cc1cn2cc(NC(=O)c3ccc(N4CCN5CCOC[C@H]5C4)c4nccnc34)cc(F)c2n1 [Compound 256, (R)—N-(8-fluoro-2-methylimidazo[1,2-a]pyridin-6-yl)-8-(hexahydropyrazino[2,1-c][1,4]oxazin-8(1H)-yl)quinoxaline-5-carboxamide] | 1000 to 10000 nM | 1000 to 10000 nM |
| Cc1cn2cc(NC(=O)c3ccc(C4=CCNCC4)c4nccnc34)cc(F)c2n1 [Compound 240, N-{8-fluoro-2-methylimidazo[1,2-a]pyridin-6-yl}-8-(1,2,3,6-tetrahydropyridin-4-yl)quinoxaline-5-carboxamide] | < 100 nM | < 100 nM |
| Cc1cn2cc(NC(=O)c3ccc(N4C[C@@H](C)N[C@@H](C)C4)c4ncc(O)nc34)cc(F)c2n1 [Compound 275] | > 10000 nM | > 10000 nM |
| Cc1cn2cc(NC(=O)c3ccc(N4CCN[C@@H](CF)C4)c4nccnc34)cc(F)c2n1 [Compound 367] | 1000 to 10000 nM | 1000 to 10000 nM |
| Cc1cn2cc(NC(=O)c3ccc(N4C[C@@H](C5CC5)N[C@@H](C)C4)c4nccnc34)cc(F)c2n1 [Compound 267, 8-((3R,5S)-3-cyclopropyl-5-methylpiperazin-1-yl)-N-(8-fluoro-2-methylimidazo[1,2-a]pyridin-6-yl)quinoxaline-5-carboxamide] | 1000 to 10000 nM | 100 to 1000 nM |
| Cc1cn2cc(NC(=O)c3ccc(N4C[C@@H](C)N[C@@H](C)C4)c4nccnc34)nc(C)c2n1 [Compound 288] | 1000 to 10000 nM | < 100 nM |
| Cc1cn2cc(NC(=O)c3ccc(N4CCNC5(CC5)C4)c4cccnc34)cc(F)c2n1 [Compound 341] | 1000 to 10000 nM | 100 to 1000 nM |
| Cc1cn2cc(NC(=O)c3ccc(N4C[C@@H](C)N[C@@H](C)C4)c4cncnc34)cc(F)c2n1 [Compound 302] | 1000 to 10000 nM | 100 to 1000 nM |
| Cc1cn2cc(NC(=O)c3ccc(N4C[C@@H](C)N[C@@H](C)C4)c4nccnc34)cc(C#N)c2n1 [Compound 294] | > 10000 nM | 100 to 1000 nM |
| Cc1cn2cc(NC(=O)c3ccc(N4C[C@@H](C)N(O)[C@@H](C)C4)c4nccnc34)cc(F)c2n1 [Compound 355] | 1000 to 10000 nM | 100 to 1000 nM |
| Cc1cn2nc(NC(=O)c3ccc(C4CCNCC4)c4ccnnc34)cc(C)c2n1 [Compound 113] | 1000 to 10000 nM | 1000 to 10000 nM |
